Assay results as given in patent publication US20060293307A1, “Oxazolidinone derivatives as antimicrobials” (priority 2002, published 2006).
≈ marks a conversion by molar mass, not a printed value.

Assays:
Experiment in all cases: MIC, agar incorporation method
[1] = tested on: E. faecalis 21777; type: cell-based; conditions: Enterococcus faecalis; S. No. 18, E. faecalis 21777; read-out: MIC
[2] = tested on: Moraxella cata. M2; type: cell-based; conditions: S. No. 59, Moraxella cata. M2; read-out: MIC
[3] = tested on: S. aureus (MRSA) 15187; type: cell-based, Staphylococcus aureus; conditions: Staphylococcus aureus; S. No. 4, S. aureus (MRSA) 15187; read-out: MIC
[4] = tested on: S. pneumoniae 1275; type: cell-based, Streptococcus pneumoniae; conditions: Streptococcus pneumoniae; S. No. 57, S. pneumoniae 1275; read-out: MIC
[5] = tested on: S. pneumoniae AB 30; type: cell-based, Streptococcus pneumoniae; conditions: Streptococcus pneumoniae, AB30; S. No. 47, S. pneumoniae AB 30; read-out: MIC
[6] = tested on: K. oxytoca 49131; type: cell-based; conditions: Klebsiella oxytoca; S. No. 27, K. oxytoca 49131; read-out: MIC
[7] = tested on: Salmonella 205; type: cell-based; conditions: S. No. 26, Salmonella 205; read-out: MIC
Procedure, shortened: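 Doubling dilutions of compound in DMSO were incorporated into Mueller-Hinton agar; 10^4 CFU/spot inoculated from 0.5 McFarland suspensions and incubated 18 h (24 h for MRSN studies). MIC = lowest concentration without visible growth; valid only when ATCC reference strains gave in-range MICs.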

[8] = tested on: E. faecium 398(VRE); type: cell-based, Enterococcus faecium; conditions: Enterococcus faecium; S. No. 22, E. faecium 398(VRE); read-out: MIC
[9] = tested on: S. pneumoniae 1256; type: cell-based, Streptococcus pneumoniae; conditions: Streptococcus pneumoniae; S. No. 56, S. pneumoniae 1256; read-out: MIC
[10] = tested on: S. epidermidis (MRSE) 23760; type: cell-based, Staphylococcus epidermidis; conditions: Staphylococcus epidermidis; S. No. 11, S. epidermidis (MRSE) 23760; read-out: MIC
[11] = tested on: S. pneumoniae 217; type: cell-based, Streptococcus pneumoniae; conditions: Streptococcus pneumoniae; S. No. 38, S. pneumoniae 217; read-out: MIC
[12] = tested on: S. pneumoniae 1251; type: cell-based, Streptococcus pneumoniae; conditions: Streptococcus pneumoniae; S. No. 54, S. pneumoniae 1251; read-out: MIC
[13] = tested on: S. pneumoniae AB 16; type: cell-based, Streptococcus pneumoniae; conditions: Streptococcus pneumoniae, AB16; S. No. 39, S. pneumoniae AB 16; read-out: MIC
[14] = tested on: S pneumoniae 1294.; type: cell-based, Streptococcus pneumoniae; conditions: Streptococcus pneumoniae; S. No. 55, S pneumoniae 1294.; read-out: MIC
[15] = tested on: Serratia marcescens 12999; type: cell-based; conditions: S. No. 29, Serratia marcescens 12999; read-out: MIC
[16] = tested on: S. pneumoniae AB 29; type: cell-based, Streptococcus pneumoniae; conditions: Streptococcus pneumoniae, AB29; S. No. 46, S. pneumoniae AB 29; read-out: MIC
[17] = tested on: S. pneumoniae AB 10; type: cell-based, Streptococcus pneumoniae; conditions: Streptococcus pneumoniae, AB10; S. No. 35, S. pneumoniae AB 10; read-out: MIC
[18] = tested on: S. pyogenes 20361; type: cell-based, Streptococcus pyogenes; conditions: Streptococcus pyogenes; S. No. 53, S. pyogenes 20361; read-out: MIC
[19] = tested on: S. aureus (MRSA) 21299; type: cell-based, Staphylococcus aureus; conditions: Staphylococcus aureus; S. No. 5, S. aureus (MRSA) 21299; read-out: MIC
[20] = tested on: P. aeruginosa ATCC 27853; type: cell-based; conditions: Pseudomonas aeruginosa, ATCC27853; S. No. 28, P. aeruginosa ATCC 27853; read-out: MIC
[21] = tested on: E. durans 581; type: cell-based; conditions: Enterococcus durans; S. No. 24, E. durans 581; read-out: MIC
[22] = tested on: S. pneumoniae AB 25; type: cell-based, Streptococcus pneumoniae; conditions: Streptococcus pneumoniae, AB25; S. No. 45, S. pneumoniae AB 25; read-out: MIC
[23] = tested on: S. aureus SG 511; type: cell-based, Staphylococcus aureus; conditions: Staphylococcus aureus, SG511; S. No. 3, S. aureus SG 511; read-out: MIC
[24] = tested on: S. pneumoniae AB-2; type: cell-based, Streptococcus pneumoniae; conditions: Streptococcus pneumoniae, AB2; S. No. 31, S. pneumoniae AB-2; read-out: MIC
[25] = tested on: E. faecalis SP 346 (VRE); type: cell-based; conditions: Enterococcus faecalis; S. No. 20, E. faecalis SP 346 (VRE); read-out: MIC
[26] = tested on: S. pyogenes 19615; type: cell-based, Streptococcus pyogenes; conditions: Streptococcus pyogenes; S. No. 51, S. pyogenes 19615; read-out: MIC
[27] = tested on: S. aureus (MRSA 33) Cipro R; type: cell-based, Staphylococcus aureus; conditions: Staphylococcus aureus; S. No. 7, S. aureus (MRSA 33) Cipro R; read-out: MIC
[28] = tested on: S. pneumoniae AB 34; type: cell-based, Streptococcus pneumoniae; conditions: Streptococcus pneumoniae, AB34; S. No. 49, S. pneumoniae AB 34; read-out: MIC
[29] = tested on: S. pneumoniae AB4; type: cell-based, Streptococcus pneumoniae; conditions: Streptococcus pneumoniae; S. No. 33, S. pneumoniae AB4; read-out: MIC
[30] = tested on: S. pneumoniae AB 21; type: cell-based, Streptococcus pneumoniae; conditions: Streptococcus pneumoniae, AB21; S. No. 41, S. pneumoniae AB 21; read-out: MIC
[31] = tested on: S. pneumoniae AB 23; type: cell-based, Streptococcus pneumoniae; conditions: Streptococcus pneumoniae, AB23; S. No. 43, S. pneumoniae AB 23; read-out: MIC
[32] = tested on: S. pneumoniae ATCC 49619; type: cell-based, Streptococcus pneumoniae; conditions: Streptococcus pneumoniae, ATCC49619; S. No. 48, S. pneumoniae ATCC 49619; read-out: MIC

| Compound | MIC [1] [µg/mL] | MIC [2] [µg/mL] | MIC [3] [µg/mL] | MIC [4] [µg/mL] | MIC [5] [µg/mL] | MIC [6] [µg/mL] | MIC [7] [µg/mL] | MIC [8] [µg/mL] | MIC [9] [µg/mL] | MIC [10] [µg/mL] | MIC [11] [µg/mL] | MIC [12] [µg/mL] | MIC [13] [µg/mL] | MIC [14] [µg/mL] | MIC [15] [µg/mL] | MIC [16] [µg/mL] | MIC [17] [µg/mL] | MIC [18] [µg/mL] | MIC [19] [µg/mL] | MIC [20] [µg/mL] | also measured |
| --- | --- | --- | --- | --- | --- | --- | --- | --- | --- | --- | --- | --- | --- | --- | --- | --- | --- | --- | --- | --- | --- |
| CC(=O)NC[C@H]1CN(c2ccc(N3CCN(c4ccc(C=O)s4)CC3)c(F)c2)C(=O)O1 [Compound No. 2, (S)—N-[[3-[3-Fluoro-4-[4-(5-formyl-2-thienyl)-1-piperazinyl]phenyl]-2-oxo-5-oxazolidinyl]methyl]acetamide] | 0.5 (≈ 1.12 µM) | 0.5 (≈ 1.12 µM) | 0.5 (≈ 1.12 µM) | < 0.25 | 0.5 (≈ 1.12 µM) | > 16 | > 16 | 0.5 (≈ 1.12 µM) | < 0.25 | < 0.25 | 0.5 (≈ 1.12 µM) | 0.5 (≈ 1.12 µM) | < 0.25 | 0.5 (≈ 1.12 µM) | > 16 | < 0.25 | < 0.25 | 0.5 (≈ 1.12 µM) | 0.5 (≈ 1.12 µM) | > 16 | MIC [21]: 0.5 µg/mL (≈ 1.12 µM); MIC [22]: < 0.25 µg/mL; MIC [23]: 0.5 µg/mL (≈ 1.12 µM); MIC [24]: < 0.25 µg/mL; MIC [25]: 0.5 µg/mL (≈ 1.12 µM); MIC [26]: 0.5 µg/mL (≈ 1.12 µM); MIC [27]: 0.5 µg/mL (≈ 1.12 µM); MIC [28]: 0.5 µg/mL (≈ 1.12 µM); MIC [29]: 0.5 µg/mL (≈ 1.12 µM); MIC [30]: 0.5 µg/mL (≈ 1.12 µM); MIC [31]: 0.5 µg/mL (≈ 1.12 µM); MIC [32]: 0.5 µg/mL (≈ 1.12 µM) |
| CC(=O)NC[C@H]1CN(c2ccc(N3CCN(c4ccc(C=O)o4)CC3)c(F)c2)C(=O)O1 [Compound No. 3, (S)—N-[[3-[3-Fluoro-4-[4-(5-formyl-2-furyl)-1-piperazinyl]phenyl]-2-oxo-5-oxazolidinyl]methyl]acetamide] | 0.5 (≈ 1.16 µM) | 1 (≈ 2.32 µM) | 1 (≈ 2.32 µM) | < 0.125 | 0.25 (≈ 0.581 µM) | > 16 | > 16 | 0.5 (≈ 1.16 µM) | 0.5 (≈ 1.16 µM) | 0.25 (≈ 0.581 µM) | 0.25 (≈ 0.581 µM) | 0.25 (≈ 0.581 µM) | 0.25 (≈ 0.581 µM) | 0.25 (≈ 0.581 µM) | > 16 | 0.25 (≈ 0.581 µM) | < 0.125 | 0.25 (≈ 0.581 µM) | 0.5 (≈ 1.16 µM) | > 16 | MIC [21]: 0.5 µg/mL (≈ 1.16 µM); MIC [22]: 0.25 µg/mL (≈ 0.581 µM); MIC [23]: 1 µg/mL (≈ 2.32 µM); MIC [24]: < 0.125 µg/mL; MIC [25]: 0.5 µg/mL (≈ 1.16 µM); MIC [26]: 0.25 µg/mL (≈ 0.581 µM); MIC [27]: 0.5 µg/mL (≈ 1.16 µM); MIC [28]: 0.25 µg/mL (≈ 0.581 µM); MIC [29]: 0.25 µg/mL (≈ 0.581 µM); MIC [30]: 0.25 µg/mL (≈ 0.581 µM); MIC [31]: 0.25 µg/mL (≈ 0.581 µM); MIC [32]: 0.25 µg/mL (≈ 0.581 µM) |
